Results taken from US9149038B2, “4-amino-6-(heterocyclic)picolinates and 6-amino-2-(heterocyclic)pyrimidine-4-carboxylates and their use as herbicides” (Dow AgroSciences LLC, priority 2013, dated 2015).
Read-outs that look alike come from different tables or passages of the source.

Legend:
[1] = system: Key Broadleaf Weed and Crop Species; experiment: Post-Emergent Test II: postemergent herbicidal activity, visual rating after 14 d (Table 7); format: in vivo; settings: post-emergence, 336 h; for pest or weed control at 35 g/ha: 35 g ai/ha; for pest or weed control at 70 g/ha: 70 g ai/ha; for pest or weed control at 140 g/ha: 140 g ai/ha
Procedure, shortened: (§1)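 Greenhouse-grown plants at the first or second true leaf stage (7-21 d, ~15 h photoperiod, 23-29° C day) were sprayed with compound in acetone/DMSO-based aqueous spray containing crop oil concentrate and Triton X-155 at 187 L/ha. Injury versus untreated plants was rated visually after 14 d on a 0-100 scale.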

[2] = system: Key Grass and Sedge Weeds as well as Grass Crops; experiment: Post-Emergent Test II: postemergent herbicidal activity, visual rating after 14 d (Table 8); format: in vivo; settings: post-emergence, 336 h; for pest or weed control at 35 g/ha: 35 g ai/ha; for pest or weed control at 70 g/ha: 70 g ai/ha; for pest or weed control at 140 g/ha: 140 g ai/ha
Procedure, shortened: as §1

[3] = ABUTH: velvetleaf (Abutilon theophrasti), read-out: Visual Growth Reduction (%) 14 Days After Application ABUTH
[4] = AMARE: redroot pigweed (Amaranthus retroflexus), read-out: Visual Growth Reduction (%) 14 Days After Application AMARE
[5] = BRSNN: oilseed rape, canola (Brassica napus), read-out: Visual Growth Reduction (%) 14 Days After Application BRSNN
[6] = CHEAL: lambsquarters (Chenopodium album), read-out: Visual Growth Reduction (%) 14 Days After Application CHEAL
[7] = EPHHL: wild poinsettia (Euphorbia heterophylla), read-out: Visual Growth Reduction (%) 14 Days After Application EPHHL
[8] = HELAN: sunflower (Helianthus annuus), read-out: Visual Growth Reduction (%) 14 Days After Application HELAN
[9] = barnyardgrass (Echinochloa crus-galli), read-out: Visual Growth Reduction (%) 14 Days After Application, ECHCG
[10] = giant foxtail (Setaria faberi), read-out: Visual Growth Reduction (%) 14 Days After Application, SETFA
[11] = maize, corn (Zea mays), read-out: Visual Growth Reduction (%) 14 Days After Application, ZEAMX
[12] = rice (Oryza sativa), read-out: Visual Growth Reduction (%) 14 Days After Application, ORYSA
[13] = wheat, spring (Triticum aestivum), read-out: Visual Growth Reduction (%) 14 Days After Application, TRZAS
[14] = yellow nutsedge (Cyperus esculentus), read-out: Visual Growth Reduction (%) 14 Days After Application, CYPES

## COC(=O)c1nc(-c2cccc3c2OCO3)nc(N)c1OC [Compound 98]
[1]; [3]
  pest or weed control at 35 g/ha: 0 to 29%
  pest or weed control at 70 g/ha: 0 to 29%
  pest or weed control at 140 g/ha: 0 to 29%
[1]; [4]
  pest or weed control at 35 g/ha: 0 to 29%
  pest or weed control at 70 g/ha: 0 to 29%
  pest or weed control at 140 g/ha: 30 to 44%
[1]; [5]
  pest or weed control at 35 g/ha: 0 to 29%
  pest or weed control at 70 g/ha: 0 to 29%
  pest or weed control at 140 g/ha: 0 to 29%
[1]; [6]
  pest or weed control at 35 g/ha: 45 to 59%
  pest or weed control at 70 g/ha: 60 to 74%
  pest or weed control at 140 g/ha: 60 to 74%
[1]; [7]
  pest or weed control at 35 g/ha: 0 to 29%
  pest or weed control at 70 g/ha: 0 to 29%
  pest or weed control at 140 g/ha: 0 to 29%
[1]; [8]
  pest or weed control at 35 g/ha: 0 to 29%
  pest or weed control at 70 g/ha: 30 to 44%
  pest or weed control at 140 g/ha: 60 to 74%
[2]; [9]
  pest or weed control at 35 g/ha: 0 to 29%
  pest or weed control at 70 g/ha: 0 to 29%
  pest or weed control at 140 g/ha: 0 to 29%
[2]; [10]
  pest or weed control at 35 g/ha: 0 to 29%
  pest or weed control at 70 g/ha: 0 to 29%
  pest or weed control at 140 g/ha: 0 to 29%
[2]; [11]
  pest or weed control at 35 g/ha: 0 to 29%
  pest or weed control at 70 g/ha: 0 to 29%
  pest or weed control at 140 g/ha: 0 to 29%
[2]; [12]
  pest or weed control at 35 g/ha: 0 to 29%
  pest or weed control at 70 g/ha: 0 to 29%
  pest or weed control at 140 g/ha: 0 to 29%
[2]; [13]
  pest or weed control at 35 g/ha: 0 to 29%
  pest or weed control at 70 g/ha: 0 to 29%
  pest or weed control at 140 g/ha: 0 to 29%
[2]; [14]
  pest or weed control at 35 g/ha: 0 to 29%
  pest or weed control at 70 g/ha: 0 to 29%
  pest or weed control at 140 g/ha: 0 to 29%
